Measured values from patent publication US7511146B2, “2-substituted benzimidazole piperidines analogs as selective melanin concentrating hormone receptor antagonists for the treatment of obesity and related disorders” (Schering Corporation, priority 2003, dated 2009).
pKi: −log10 of the molar value.

Target: T1, MCH receptor (Homo sapiens, UniProt Q99705)
T1 construct: expressed in transfected cells; host or cells: CHO cells
Assay: MCH Receptor Binding Assay ([125I]-MCH, SPA, membranes from CHO cells expressing the MCH receptor)
Conditions: [125I]-MCH displacement, CHO cell membranes; read-out: Class (Ki, MCH receptor binding)
Protocol: MCH Receptor Binding Assay:
Membranes from CHO cells expressing the MCH receptor were prepared by lysing cells with 5 mM HEPES for 15 min at 4C. Cell lysates were centrifuged ([…], 15 min) and the pellet was resuspended in 5 mM HEPES. For each 96-well plate (Microlite, Dynex Technologies), 1 mg of cell membranes were incubated with 10 mg of wheat germ agglutinin SPA beads (Amersham) for 5 min at 4 C in a volume of 10 ml of binding buffer (25 mM HEPES, 10 mM MGCl2, 10 mM NaCl, 5 mM MnCl2, 0.1% BSA). The membrane/bead mixture was centrifuged (1500×g, 3.5 min), the supernatant was aspirated, and the pellet was resuspended in 10 ml binding buffer. The centrifugation, aspiration and resuspension were then repeated. The membrane/bead mixture (100 μl) was then added to 96-well plates containing 50 μl of 500 pM [^125I]-MCH (NEN) and […] of the appropriate concentration of compound (4× the desired final concentration). Nonspecific binding was determined by including 1 μM MCH in the binding reaction. The binding reaction was incubated at room temperature for 2 h. Plates were then analyzed in a TOPCOUNT microplate scintillation counter (Packard). Data was analyzed and Ki values were determined using GraphPad Prism.

T1 sequence (Q99705 whole entry): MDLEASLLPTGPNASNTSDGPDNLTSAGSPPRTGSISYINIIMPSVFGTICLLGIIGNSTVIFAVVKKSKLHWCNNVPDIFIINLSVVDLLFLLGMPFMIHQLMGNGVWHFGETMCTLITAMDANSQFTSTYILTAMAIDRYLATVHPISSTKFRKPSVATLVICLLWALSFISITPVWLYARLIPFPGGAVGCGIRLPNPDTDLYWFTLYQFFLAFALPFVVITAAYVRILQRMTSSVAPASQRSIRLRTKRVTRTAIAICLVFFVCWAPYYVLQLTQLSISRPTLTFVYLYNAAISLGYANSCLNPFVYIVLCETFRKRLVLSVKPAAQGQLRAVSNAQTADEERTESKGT

`CC(C)(C)OC(=O)N1CCC(COc2nc3cc(Cl)c(Cl)cc3[nH]2)(c2ccc(-c3cccc(C#N)c3)cc2)CC1` [Compound 53, 4-(3′-cyano-biphenyl-4-yl)-4-(5,6-dichloro-1H-benzoimidazol-2-yloxymethyl)-piperidine-1-carboxylic acid tert-butyl ester] and `CCNC(=O)N1CCC(COc2nc3cc(Cl)c(Cl)cc3[nH]2)(c2ccc(-c3cccc(C#N)c3)cc2)CC1` [Compound 58, 4-(3′-Cyano-biphenyl-4-yl)-4-(5,6-dichloro-1H-benzoimidazol-2-yloxymethyl)-piperidine-1-carboxylic acid ethylamide] cannot be ordered by pKi: less than 7.00 for the first, less than 7.00 for the second.

First: CC(C)(C)OC(=O)N1CCC(C(NCc2nc3cc(Cl)c(Cl)cc3[nH]2)c2ccc(-c3cccc(C#N)c3)cc2)CC1 (centres unmarked) [Compound 15A]
Second: CC(C)(C)OC(=O)N1CCC(C(NCc2nc3cc(F)c(Cl)cc3[nH]2)c2ccc(-c3cccc(C#N)c3)cc2)CC1 (centres unmarked) [Compound 15B]
The pKi of the first is lower: 7.00 to 7.30 for the first, 7.30 to 7.70 for the second. The second binds more tightly here.

`CC(C)(C)OC(=O)N1CCC(OCc2nc3cc(F)c(F)cc3[nH]2)(c2ccc(-c3cccc(C#N)c3)cc2)CC1` [Compound 63, 4-(3′-Cyano-biphenyl-4-yl)-4-(5,6-difluoro-1H-benzoimidazol-2-ylmethoxy)-piperidine-1-carboxylic acid tert-butyl ester] and `COC(=O)N1CCC(CNc2nc3cc(F)c(F)cc3[nH]2)(c2ccc(-c3cccc(C#N)c3)cc2)CC1` [Compound 8D] cannot be ordered by pKi: less than 7.00 for the first, less than 7.00 for the second.

First: N#Cc1cccc(-c2ccc(C(NCc3nc4cc(Cl)c(F)cc4[nH]3)C3CCNCC3)cc2)c1 (centres unmarked) [Compound 16B]
Second: N#Cc1cccc(-c2ccc(C(NCc3nc4cc(Cl)c(Cl)cc4[nH]3)C3CCNCC3)cc2)c1 (centres unmarked) [Compound 16A]
The pKi of the first is lower: 7.30 to 7.70 for the first, greater than 7.70 for the second.

First: N#Cc1cccc(-c2ccc(C3(COc4nc5cc(Cl)c(Cl)cc5[nH]4)CCN(CC4CC4)CC3)cc2)c1 [Compound 57, 4′-[1-Cyclopropylmethyl-4-(5,6-dichloro-1H-benzoimidazol-2-yloxymethyl)-piperidin-4-yl]-biphenyl-3-carbonitrile]
Second: CS(=O)(=O)N1CCC(COc2nc3cc(Cl)c(Cl)cc3[nH]2)(c2ccc(-c3cccc(C#N)c3)cc2)CC1 [Compound 56, 4′-[4-(5,6-Dichloro-1H-benzoimidazol-2-yloxymethyl)-1-methanesulfonyl-piperidin-4-yl]-biphenyl-3-carbonitrile]
The pKi of the first is higher: 7.00 to 7.30 for the first, less than 7.00 for the second.

First: N#Cc1cccc(-c2ccc(C(CSc3nc4cc(F)c(Cl)cc4[nH]3)C3CCNCC3)cc2)c1 (centres unmarked) [Compound 48]
Second: N#Cc1cccc(-c2ccc(C(OCc3nc4cc(F)c(Cl)cc4[nH]3)C3CCNCC3)cc2)c1 (centres unmarked) [Compound 33]
The pKi of the first is lower: less than 7.00 for the first, 7.30 to 7.70 for the second.

`N#Cc1cccc(-c2ccc(C(OCc3nc4cc(F)c(Cl)cc4[nH]3)C3CCN(CC4CC4)CC3)cc2)c1` (centres unmarked) [Compound 34A] and `N#Cc1cccc(-c2ccc(C(OCc3nc4cc(F)c(Cl)cc4[nH]3)C3CCN(C4CCCC4)CC3)cc2)c1` (centres unmarked) [Compound 34C] fall in the same range of pKi: 7.30 to 7.70 for the first, 7.30 to 7.70 for the second.

`CC(=O)N1CCC(C(OCc2nc3cc(Cl)c(Cl)cc3[nH]2)c2ccc(-c3cccc(C#N)c3)cc2)CC1` (centres unmarked) [Compound 44] and `CS(=O)(=O)N1CCC(C(OCc2nc3cc(Cl)c(Cl)cc3[nH]2)c2ccc(-c3cccc(C#N)c3)cc2)CC1` (centres unmarked) [Compound 39] cannot be ordered by pKi: less than 7.00 for the first, less than 7.00 for the second.

`N#Cc1cccc(-c2ccc(C(CNc3nc4cc(F)c(F)cc4[nH]3)C3CCN(Cc4ccccc4)CC3)cc2)c1` (centres unmarked) [Compound 28B] and `N#Cc1cccc(-c2ccc(C(CNc3nc4cc(Cl)c(Cl)cc4[nH]3)C3CCN(Cc4ccccc4)CC3)cc2)c1` (centres unmarked) [Compound 28A] cannot be ordered by pKi: greater than 7.70 for the first, greater than 7.70 for the second.

First: N#Cc1cccc(-c2ccc(C(OCc3nc4cc(F)c(Cl)cc4[nH]3)C3CCN(CCCCCO)CC3)cc2)c1 (centres unmarked) [Compound 34D]
Second: N#Cc1cccc(-c2ccc(C(OCc3nc4cc(F)c(Cl)cc4[nH]3)C3CCN(Cc4ccccc4)CC3)cc2)c1 (centres unmarked) [Compound 34B]
The pKi of the first is lower: less than 7.00 for the first, 7.30 to 7.70 for the second.

`N#Cc1cccc(-c2ccc(C3(CCc4nc5cc(Cl)c(F)cc5[nH]4)CCN(CC4CC4)CC3)cc2)c1` [Compound 11C] and `N#Cc1cccc(-c2ccc(C3(CCc4nc5cc(F)c(F)cc5[nH]4)CCN(CC4CC4)CC3)cc2)c1` [Compound 11A] cannot be ordered by pKi: less than 7.00 for the first, less than 7.00 for the second.

First: N#Cc1cccc(-c2ccc(C(CCc3nc4cc(Cl)c(Cl)cc4[nH]3)C3CCN(Cc4ccccc4)CC3)cc2)c1 (centres unmarked) [Compound 75A]
Second: N#Cc1cccc(-c2ccc(C(CCc3nc4cc(Cl)c(F)cc4[nH]3)C3CCN(Cc4ccccc4)CC3)cc2)c1 (centres unmarked) [Compound 75B]
The pKi of the first is lower: 7.00 to 7.30 for the first, 7.30 to 7.70 for the second.

`N#Cc1cccc(-c2ccc(C3(CNc4nc5cc(F)c(F)cc5[nH]4)CCNCC3)cc2)c1` [Compound 8A] and `N#Cc1cccc(-c2ccc(C3(CNc4nc5cc(F)c(F)cc5[nH]4)CCN(CC4CC4)CC3)cc2)c1` [Compound 8B] fall in the same range of pKi: 7.30 to 7.70 for the first, 7.30 to 7.70 for the second.

First: N#Cc1cccc(-c2ccc(C3(CCc4nc5cc(Cl)c(F)cc5[nH]4)CCNCC3)cc2)c1 [Compound 11B]
Second: N#Cc1cccc(-c2ccc(C3(COc4nc5cc(Cl)c(Cl)cc5[nH]4)CCNCC3)cc2)c1 [Compound 54, 4′-[4-(5,6-Dichloro-1H-benzoimidazol-2-yloxymethyl)-piperidin-4-yl]-biphenyl-3-carbonitrile]
The pKi of the first is lower: less than 7.00 for the first, 7.00 to 7.30 for the second.

Compared with `N#Cc1cccc(-c2ccc(C3(CNc4nc5cc(F)c(F)cc5[nH]4)CCN(C4CCC4)CC3)cc2)c1` [Compound 8C], `N#Cc1cccc(-c2ccc(C3(NCc4nc5cc(Cl)c(Cl)cc5[nH]4)CCN(C4CCCC4)CC3)cc2)c1` [Compound 67A, 4′-{1-Cyclopentyl-4-[(5,6-dichloro-1H-benzoimidazol-2-ylmethyl)-amino]-piperidin-4-yl}-biphenyl-3-carbonitrile] is lower in pKi: 7.30 to 7.70 for the first, less than 7.00 for the second. The first binds more tightly here.

Compared with `N#Cc1cccc(-c2ccc(C(CCc3nc4c(Cl)cc(Cl)cc4[nH]3)C3CCN(Cc4ccccc4)CC3)cc2)c1` (centres unmarked) [Compound 75C], `N#Cc1cccc(-c2ccc(C(NCc3nc4cc(Cl)c(F)cc4[nH]3)C3CCN(CC4CC4)CC3)cc2)c1` (centres unmarked) [Compound 17A] is higher in pKi: 7.30 to 7.70 for the first, greater than 7.70 for the second. The second binds more tightly here.

First: N#Cc1cccc(-c2ccc(C(NCc3nc4cc(Cl)c(F)cc4[nH]3)C3CCN(C4CCCC4)CC3)cc2)c1 (centres unmarked) [Compound 17B]
Second: N#Cc1cccc(-c2ccc(C3(NCc4nc5ccccc5[nH]4)CCN(C4CCCC4)CC3)cc2)c1 [Compound 67B]
The pKi of the first is higher: 7.30 to 7.70 for the first, less than 7.00 for the second.

Same assay, conditions: [125I]-MCH displacement, CHO cell membranes; read-out: Ki value

`N#Cc1cccc(-c2ccc(C(CNc3nc4cc(Cl)c(Cl)cc4[nH]3)C3CCN(Cc4ccccc4)CC3)cc2)c1` (centres unmarked) [Compound 28A] showed a pKi of 8.52.
